Measured values reported in a melting point compilation (Tetko et al.; mined from patent text by program, amines drawn as free bases though some values may be those of a salt).

| Structure (SMILES) | melting point [°C] |
| --- | --- |
| O=C(O)c1ccccc1C(=O)C=Cc1cc(O)c(O)c([N+](=O)[O-])c1 | 178 to 180 |
| COC(=O)c1ccc(Cc2cn(C)c3ccc(C(=O)O)cc23)c(OC)c1 | 249 to 251 |
| COC(=O)CCCCCCCCCCCCC1=C(C)C(=O)C(OC)=C(OC)C1=O | 54 |
| CC(=S)Nc1ccc(-c2nc3ccccc3s2)cc1 | 222 to 223 |
| CCN(CC)C(=O)C=Cc1cc([N+](=O)[O-])ccc1C | 61.9 |
| Cc1cccc(NC(=O)NCC(=O)N(CC(=O)N(C)c2ccccc2Cl)c2ccccc2)c1 | 175 |
| O=C(NCc1ccccc1)c1ccc(C=CC(=O)N2CCc3c([nH]c4ccccc34)C2c2ccc3c(c2)OCO3)cc1 (centres undefined) | 203 |
| O=C(O)/C=C/c1ccc(-c2nc3c(=O)n(CC4CCCC4)c(=O)n(CC4CCCC4)c3[nH]2)cc1 | > 300 |
| CC(=O)N1c2cc(Cl)cc(Cl)c2C(=O)CC1C(=O)O (centres undefined) | 212 to 213 |
| CCCCCCCN(CCCCCS(=O)(=O)c1nc(-c2ccccc2)c(-c2ccccc2)[nH]1)C(=O)Nc1ccc(F)cc1F | 66 to 68 |
| CC(N)=CC(=O)CS(=O)(=O)N(C)C | 137 to 140 |
| CCCCOc1ccc(S(=O)(=O)OC2CN(S(=O)(=O)c3ccc(OCCCC)cc3)C2)cc1 | 90 to 93 |
| CCN1CCN(c2nc(-c3ccc(O)cc3)cc3ccccc23)CC1 | 204 to 206 |
| O=c1c(Cl)nsnc1Cl | 81 to 82 |
| COc1cccc2[nH]c3c(c12)C(=O)N=NC3=O | > 260 |
| COc1cc(C(=O)O)ccc1CNC(=O)C1Cc2ccccc2N1S(=O)(=O)c1ccc(-c2cccc(C(F)(F)F)c2)cc1 (centres undefined) | 108 to 120 |
| Cc1ccccc1Nc1c(C(=O)C(C)C)cnc2c(O)cccc12 | 131 to 133 |
| CCOC(=O)c1c(Cl)c(Cl)c(Cl)c(Cl)c1C#N | 74 to 75 |
| CCc1c[nH]c(C2Cc3ccccc3N2C(=O)Nc2ccccc2[N+](=O)[O-])n1 (centres undefined) | 208 to 209 |
| COCCn1cc(C#N)c(N)n1 | 105 to 107 |
| Cc1ccc(C(O[Si](C)(C)C(C)(C)C)C(N)=O)cc1 (centres undefined) | 108 to 110 |
| C1=Nc2cccc(-c3ccoc3)c2C12COc1cc3c(cc12)OCO3 (centres undefined) | 270 to 272 |
| Cc1cn(C2CC(O)C(CO[Si](C)(C)C(C)(C)C)O2)c(=O)[nH]c1=O (centres undefined) | 193 to 194 |
| Nc1ccccc1-c1cc2[nH]c3ccccc3c2c2c1C(=O)NC2=O | > 300 |
| C#Cc1cc([C@@H](C)NC(=O)Nc2ccc(C(C)(C)C)cc2)ccc1NS(C)(=O)=O | 88.4 to 89.4 |

| Structure (SMILES) | melting point [°C] |
| --- | --- |
| COc1cc2c(-c3ccccc3)csc2c(Cl)c1Cl | 117 to 119 |
| Cc1ccccc1C(=O)Nc1ccc(C(=O)N2CCS(=O)c3ccccc32)cc1 (centres undefined) | 240 to 241 |
| CCOC(=O)N1CCN2c3ccccc3Cc3ccccc3C2C1 (centres undefined) | 108 to 110 |
| O=C(O)CC(=O)N(c1ccccc1)c1ccccc1 | 126 to 127 |
| CCC(Oc1ccccc1C(C)(C)C)C(=O)OC1CC(O)C=C2C=CC(C)C(CCC3CC(O)CC(=O)O3)C21 (mixture of isomers) | 176 to 178 |
| CSc1nccc(Oc2ccc(NC(=O)c3cc(F)cc(N4CCCC4)c3)c3ccccc23)n1 | 180 to 181 |
| Cc1ccsc1C(=O)c1cc(CN(C)C)c(O)c(C(C)(C)C)c1 | 149 to 150 |
| CC(=O)c1ccc(-c2coc3ccc(-c4nnc(C)o4)cc23)cc1 | 197 to 198 |
| CNc1ccc(C#N)c(F)c1 | 110 to 112 |
| CCCCOc1cc(C(=O)O)cc(S(N)(=O)=O)c1-c1ccccc1 | 129 to 131 |
| CC(C)(C)OC(=O)N1CCC(CC(=O)Nc2cccc(-c3ccnc4c(C(=O)c5cccs5)cnn34)c2)CC1 | 173 to 175 |
| c1ccc(Cn2c(NC3=NCCN3)nc3ccccc32)cc1 | 165 to 166 |
| Cc1nn(CC(C)(C)O)c(-c2ccc(F)cc2)c1-c1ccc2c(c1)NC(=O)CO2 | 166 to 167 |
| CCc1nc(NC(=O)c2cc(Br)ccc2O)sc1-c1ccccc1 | 224 to 225 |
| Cc1ccc2noc(-c3ccccc3)c2c1 | 64 to 66 |
| Cc1cc(-c2nc3ccccc3s2)ccc1N | 193 to 195 |
| CCOC(=O)c1cnccc1NC(=O)Cc1c(F)cccc1Cl | 114 to 116 |
| CCCc1nc2c(N)nc3ccc(-c4ccc(CN)cc4)cc3c2s1 | 225 to 226 |
| CCCc1c2nc(C(=O)O)cc(Cl)c2cc2c(=O)cc(C(=O)O)oc12 | 336 to 338 |
| CC(C)(CO)Oc1ccc(CNc2ccc(Cl)cc2)cc1 | 84 to 91 |
| ClC(=NNc1ccccc1)c1c(Cl)cccc1Cl | 95.5 to 96.5 |
| c1ccc(COC[C@H](CP(c2ccccc2)c2ccccc2)P(c2ccccc2)c2ccccc2)cc1 | 88 |
| CC(=O)Nc1cc(Cl)c(Br)c(Cl)c1 | 224 |
| COc1ccc(-c2c(C#N)nn(-c3c(Cl)cc(C(F)(F)F)cc3Cl)c2N)cc1OC | 250 |
